# Results published in publication PMC7900953, “Location of a single histidine within peptide carriers increases mRNA delivery” (The Journal of Gene Medicine, 2020).
# How the values were obtained:
# MDA‐MB‐231 cells [1] = assay: In vitro uptake of HK polyplexes by flow cytometry; type: cell-based; conditions: HK:mRNA 4:1, 1, 2 and 4 hours, DMEM/10% FBS
# Method: Intracellular uptake of polymer–mRNA complex in MDA‐MB‐231 was measured by flow cytometry. Twenty‐four hours before the treatment, cells were plated in a 24‐well plate. The polymer‐mRNA polyplex was formed in Opti‐MEM at a ratio of 4:1 at room temperature for 30 minutes. After the cell culture medium was replaced with DMEM/10% FBS, H3K(+H)4b‐ or H3K4b‐mRNA polyplexes (cyanine 5'‐labeled mRNA; Trilink Biotechnologies, Inc.) were added to the cells. At several time points (1, 2 and 4 hours), transfected cells were harvested, fixed with 4% formalin/1% glutaraldehyde, and resuspended in PBS buffer for analysis. The results from the fluorescently labeled MDA‐MB‐231 cells were then acquired using Cytoflex (Beckman Coulter) and analyzed using CytExpert, version 2.3.0.84 (Beckman Coulter) on the flow cytometer.
# Figure S2. Uptake of cyanine 5-labeled mRNA uptake into MDA-MB-231 cells with different peptide carriers. The percentages of cells containing labeled mRNA 1, 2, 4 hours after transfection with H3K(+H)4b (upper panel) or with H3K4b (lower panel).
# trypsin = assay: Stability of HK polyplexes to enzymatic degradation; type: in vitro ADME; conditions: trypsin (0.025%) 30 or 60 min; HK (0.5, 1, 4 µg):mRNA (1 µg); release of mRNA on 1% agarose gel
# Method: After preparation of the H3K4b‐ or H3k(+H)4b‐mRNA polyplexes [w:w; HK (0.5, 1 or 4 μg):mRNA (1 μg)], these polyplexes were incubated with trypsin (0.025%) for 30 or 60 minutes. The HK polyplexes were then loaded on a 1% agarose gel and electrophoresis was carried out at 75 V for 30 minutes in TAE buffer. The gel was stained in a TAE buffer containing ethidium bromide (1 μg/ml) for 10 minutes.
# [picture] Figure S3. Stability of HK polyplexes to enzymatic degradation. After preparation of the H3K4b or H3k(+H)4b mRNA polyplexes (wt:wt; HK (0.5, 1, 4 µg):mRNA (1 µg)), these polyplexes were incubated with trypsin (0.025%) for 30 or 60 min. The HK polyplexes were then loaded on a 1% agarose gel and electrophoresis was carried out at 75 V for 30 min in TAE buffer. The gel was stained in a TAE buffer containing ethidium bromide (1 µg/ml) for 10 min.
# [2] = Particle size, polydispersity index (PDI) and zeta potential of polyplexes (dynamic light scattering); type: physicochemical; conditions: HK peptide (4 μg) + mRNA (1 μg), 25°C; for Zeta potential of polyplex / Size of polyplex: mean ± SD of three measurements; for Size of polyplex: DLS 90°, z‐average; for PDI of polyplex: DLS
# Method: The size, PDI and zeta potential were determined with the Zetasizer (Malvern, Westborough, MA, USA) and analyzed with Zetasizer, version 6.2 (Malvern). Using dynamic light scattering at a 90° angle, the size of the particles were reported as the z‐average diameter from the intensity‐weighted size distribution. Prior to the measurements, the samples were equilibrated to 25°C for 2 minutes. Each measurement had at least 10 sub‐runs under the automatic mode of the software. The particle size, PDI and zeta potential data point represent the mean ± SD of three measurements. After mixing HK peptides (4 μg) and mRNA (1 μg) in 100 μl of defined media (Opti‐MEM, water, or DMEM/8% FBS) for 30 minutes, 100 μl of additional defined media was added to the polyplex solution (total volume 200 μl) to measure the size and PDI. To determine the zeta potential, 800 μl more of the media was added (total volume 1000 μl), mixed gently and then added to the disposable zeta cell.
# MDA‐MB‐231 cells [3] = assay: In vitro uptake of HK polyplexes by fluorescence microscopy; type: cell-based; conditions: HK:mRNA 4:1; for Aggregates of polyplexes seen by fluorescence microscopy: 4 hours after transfection
# Method: With the mRNA labeled with Cy5, HK polyplexes at a ratio of 4:1 (HK:mRNA) were prepared as described for in vitro transfection. The labeled polyplexes were incubated with MDA‐MB‐231 cells for four hours in Opti‐MEM. After the cells were washed with phosphate‐buffered saline (PBS) (Quality Biologicals, Gaithersburg, MD, USA), they were incubated for 30 minutes with LysoTracker Green DND‐26 (Cell Signaling Technology, Inc., Danvers, MA, USA), a dye that stains acidic endosomes and lysosomes. Then after the cells were washed twice with PBS and once with 1% Triton‐X, they were fixed (4% formalin/1% glutaraldehyde) and the nuclei were stained with chromatin dye Hoechst 33342 (Invitrogen, Carlsbad, CA, USA). Images were obtained with a Nikon TE2000‐S (Nikon, Tokyo, Japan) with a mercury lamp light source usng the filter sets: Ex‐357(20)/Em‐460(60) (Hoechst); Ex‐480(30)/Em‐535(45) (Lysotracker green DND‐26); Ex‐620(50)/Em‐690(50) (Cy5‐labeled‐mRNA). Red/green ratios were measured on 20 intracellular acidic vesicles (one per cell) using ImageJ, version 1.52. ^42
# FIGURE 5 Fluorescence images of different mRNA polyplexes within acidic vesicles of MDA‐MB‐231 cells. (A) Four hours after transfection with labeled mRNA by H3K(+H)4b (upper) or H3K4b (lower) carriers, intracellular acidic vesicles were stained with Lysotracker green. The cells were then fixed, and the nuclei were stained with Hoesch 33342 dye. Images were obtained with a Nikon TE2000‐S using a mercury lamp light source and the filter sets delineated in the Materials and methods (green, acidic vesicles; red, cynanine 5‐labeled mRNA; blue, nuclei labeled with Hoescht dye). […] Arrows indicate the irregularly shaped mRNA aggregates frequently observed with H3K4b carrier. (B) Analysis of the amount of HK (H3K4b or H3K(+H)4b) polyplexes within acidic endosomal vesicles of MDA‐MB‐231 cells. Images of HK polyplexes labeled with cyanine5 (red emission) were imported into endosomal vesicles (green emission). The red/green ratios were measured on 20 intracellular acidic vesicles using ImageJ. […]
# cytokines = conditions: in vitro and in vivo; cited from earlier work
Substance,Uptake of Cy5-labelled mRNA polyplexes into cells (MDA‐MB‐231 cells [1]),Stability of mRNA polyplex to trypsin (trypsin),Zeta potential of polyplex ([2]; DMEM/8%FBS) [mV],Size of polyplex ([2]; DMEM/8%FBS) [nm],PDI of polyplex ([2]; DMEM/8%FBS),Zeta potential of polyplex ([2]; Opti‐MEM) [mV],Size of polyplex ([2]; Opti‐MEM),PDI of polyplex ([2]; Opti‐MEM),Zeta potential of polyplex ([2]; Water) [mV],Size of polyplex ([2]; Water) [nm],PDI of polyplex ([2]; Water),Aggregates of polyplexes seen by fluorescence microscopy (MDA‐MB‐231 cells [3]),"Localization of polyplexes within acidic endosomal vesicles (MDA‐MB‐231 cells [3]; 4 hours in Opti‐MEM, red/green ratios on 20 vesicles, p < 0.001)",Cytokine induction by siRNA polyplex (cytokines)
"R = KHHHKHHHKHHHHKHHHK [H3K(+H)4b, four‐branched analogue of H3K4b with one extra histidine in the second ‐HHHK‐ motif]",imported into the cells more than H3K4b polyplexes,reduced stability to trypsin at the 1:2 and 1:1 ratios compared to the H3k(+H)4b polyplex,−12.7 ± 1.04,289 ± 38.2,0.307,2.92 ± 1.83,"1,004 ± 61.1 nm",0.362,20.77 ± 1.12,234.9 ± 2.7,0.212,not observed,localized within the acidic endosomal vesicles significantly more than H3K4b polyplexes,
R = KHHHKHHHKHHHKHHHK [H3K4b],,,−12.1 ± 2.22,578 ± 80.5,0.421,−4.20 ± 2.78,"2,030.7 ± 117.3 nm",0.466,16.47 ± 0.74,199.9 ± 0.8,0.171,likely extracellular aggregates,,induced cytokines to a significantly greater degree in vitro and in vivo than the H3K(+H)4b‐siRNA polyplexes
